Assay results reported in BindingDB's records for doi:10.1021/jm00011a008 (Upjohn, 1995).

Biological target: T1, Dimer of Gag-Pol polyprotein [489-587] (Human immunodeficiency virus 1, UniProt P12497)
T1 construct: 489-587
Test: Protease Inhibition Assay
Details: pH 5; 22 °C
Description: HIV-1 protease was purified and refolded from E. coli inclusion bodies. […] In the presence of HIV-l protease, the substrate is rapidly cleaved into two parts. The biotinylated amino terminal fragment binds to the avidin beads while the FITC-containing carboxy1 terminal fragment is removed through the membrane. […] The bound fluorescence is obtained by processing on an IDEXX Screen Machine. Determination of Ki values with this assay requires analysis under conditions in which substrate concentration resides substantially below Km and the inhibitor concentrations greatly exceeds the Ki value and the enzyme concentration.

Structure (SMILES)	Ki
O=c1oc2c(c(O)c1C(c1ccccc1)c1ccccc1)CCCCCC2 [3-(Diphenylmethyl)-5,6,7,8,9,1O-hexahydro-4-hydroxy-W-cycloocta[b]pyran-2-one]	180 nM
CCCC(c1ccccc1)c1c(O)c2c(oc1=O)CCCCCC2 (stereo not given) [4-hydroxy-3-(1-phenylbutyl)-2H,5H,6H,7H,8H,9H,10H-cycloocta[b]pyran-2-one]	29 nM
CC(C)C(c1ccccc1)c1c(O)c2c(oc1=O)CCCCCC2 (stereo not given) [5,6,7,8,9,1O-Hexahydro-4-hydroxy-3-(2-methyl-nylpropyl)-W-cycloocta[b]pyran-2-one]	22 nM
CC(C)CC(c1ccccc1)c1c(O)c2c(oc1=O)CCCCCC2 (stereo not drawn) [5,6,7,8,9,1O-Hexahydro-4-hydroxy-3-(3-methyl-l-phe-nylbutyl)-W-cycloocta[b]pyran-2-one]	90 nM
CCCCC(c1ccccc1)c1c(O)c2c(oc1=O)CCCCCC2 (stereo not given) [5,6,7,8,9,10-Hexahydroro-4-hydroxy-1-phenylpentyl)-W-cycloocta[blpyran-2-one]	62 nM
